{"source": "patent US20250064951A1", "about": "“DENDRITIC POLYELECTROLYTE ZWITTERIONS, JANUS-TYPE CONJUGATE COMPRISING SAME AND USES THEREOF” (ArtProBio Co., Ltd., priority 2023, published 2025)", "key": {"BALB/c nude mice": {"system": "BALB/c nude mice", "assay": "In vivo delivery of EGFP mRNA complex, eGFP imaging by IVIS", "conditions": "subcutaneous injection, 0.1 mg/kg", "description": "The complex ((+6)2(−6)2_conjugate 2_complex) was subcutaneously injected into BALB/c nude mice at 0.1 mg/kg, and then the expressed eGFP (enhanced green fluorescenct protein) was imaged and quantified with IVIS (in vivo imaging system). As a control group, only EGFP mRNA was used instead of the complex."}, "HeLa cells": {"system": "HeLa cells", "assay": "EGFP mRNA complex delivery and eGFP expression in HeLa cells by flow cytometry", "type": "cell-based", "conditions": "complex with EGFP mRNA", "description": "HeLa cells were subcultured in DMEM supplemented with 10% FBS (fetal bovine serum), dispensed into each well at 1-3×10^4 cells/well, and cultured at 37° C. for 24 hours. The cells were treated with the (+6)2(−6)2_conjugate 2_complex or the (+6)2(−6)2_conjugate 3_complex at a concentration of […], respectively, and incubated at 37° C. for 4 hours. Afterwards, the cells were washed with Dulbecco's phosphate-buffered saline (DPBS), trypsinized, and resuspended in DPBS supplemented with 10% cell dissociation buffer (GIBCO) and 1% FBS. Then, the expressed eGFP (enhanced green fluorescent protein) was analyzed using a flow cytometer (BD LSR II SORT flow cytometer, BD Bioscience, USA)."}}, "data": [{"smiles": "CCCCCCCCCCCCCCCCCCC[C@H](CCCCNC(=O)CCCCCCCCCCCCCCC)C(=O)NCCCCC(NC(=O)[C@H](CCCCNC(=O)[C@H](CCCCNC(=O)[C@H](CCC(=O)O)NC(=O)[C@H](CCC(=O)O)NC(=O)[C@H](CCC(=O)O)NC(=O)[C@H](CCC(=O)O)NC(=O)[C@H](CCC(=O)O)NC(=O)[C@H](CCC(=O)O)NC(C)=O)NC(=O)[C@H](CCCNC(=N)N)NC(=O)[C@H](CCCNC(=N)N)NC(=O)[C@H](CCCNC(=N)N)NC(=O)[C@H](CCCNC(=N)N)NC(=O)[C@H](CCCNC(=N)N)NC(=O)[C@H](CCCNC(=N)N)NC(C)=O)NC(=O)[C@H](CCCCNC(=O)[C@H](CCC(=O)O)NC(=O)[C@H](CCC(=O)O)NC(=O)[C@H](CCC(=O)O)NC(=O)[C@H](CCC(=O)O)NC(=O)[C@H](CCC(=O)O)NC(=O)[C@H](CCC(=O)O)NC(C)=O)NC(=O)[C@H](CCCNC(=N)N)NC(=O)[C@H](CCCNC(=N)N)NC(=O)[C@H](CCCNC(=N)N)NC(=O)[C@H](CCCNC(=N)N)NC(=O)[C@H](CCCNC(=N)N)NC(=O)[C@H](CCCNC(=N)N)NC(C)=O)C(N)=O", "note": "(stereo partly drawn) [Example 7]", "values": [{"measurement": "in vivo mRNA delivery and eGFP protein expression (IVIS)", "setting": "BALB/c nude mice", "result": "successfully delivered the mRNA in vivo"}, {"measurement": "delivery of EGFP mRNA into cells", "setting": "HeLa cells; 16 M or 32 M, 4 hours", "result": "successfully delivered the mRNA into the nucleus and cytoplasm of the cells"}, {"measurement": "efficiency of eGFP protein expression from internalized EGFP mRNA", "setting": "HeLa cells; flow cytometry", "result": 82.9, "unit": "%"}]}]}
